Test results published in the OligoGym collection.
HELM strings list units from the 5' end as sugar, base in round brackets, then linkage (d deoxyribose, r ribose, m 2'-O-methyl, p phosphodiester). Strings are as the collection lists them; they lack the last nucleoside at the 3' end of the tested compound. [moe] = 2'-O-(2-methoxyethyl) (MOE); [sp] = phosphorothioate linkage; [m5C] = 5-methylcytosine

What follows are substances tested against SMN2 (assay: mouse, dose not given). Details: ASO.

“RNA1{[moe](A)[sp].[moe]([m5C])[sp].[moe](T)[sp].[moe](T)[sp].[moe](T)[sp].[moe]([m5C])p.[moe](A)p.[moe](T)p.[moe](A)p.[moe](A)p.[moe](T)p.[moe](G)p.[moe]([m5C])[sp].[moe](T)[sp].[moe](G)[sp].[moe](G)}$$$$ (last 3' nucleoside missing)” and “RNA1{[moe](A)[sp].[moe]([m5C])[sp].[moe](T)[sp].[moe](T)[sp].[moe](T)p.[moe]([m5C])p.[moe](A)p.[moe](T)p.[moe](A)[sp].[moe](A)[sp].[moe](T)[sp].[moe](G)[sp].[moe]([m5C])[sp].[moe](T)[sp].[moe](G)[sp].[moe](G)}$$$$ (last 3' nucleoside missing)” are the same in 3 h FOB score: 0 score 0-7 for the first, 0 score 0-7 for the second.

“RNA1{[moe](A)[sp].[moe]([m5C])[sp].[moe](T)p.[moe](T)[sp].[moe](T)[sp].[moe]([m5C])[sp].[moe](A)[sp].[moe](T)[sp].[moe](A)[sp].[moe](A)[sp].[moe](T)[sp].[moe](G)[sp].[moe]([m5C])[sp].[moe](T)p.[moe](G)[sp].[moe](G)}$$$$ (last 3' nucleoside missing)” and “RNA1{[moe](A)[sp].[moe]([m5C])[sp].[moe](T)p.[moe](T)[sp].[moe](T)[sp].[moe]([m5C])[sp].[moe](A)[sp].[moe](T)[sp].[moe](A)p.[moe](A)[sp].[moe](T)[sp].[moe](G)[sp].[moe]([m5C])[sp].[moe](T)p.[moe](G)[sp].[moe](G)}$$$$ (last 3' nucleoside missing)” are the same in 3 h FOB score: 0 score 0-7 for the first, 0 score 0-7 for the second.

“RNA1{[moe](A)[sp].[moe]([m5C])[sp].[moe](T)p.[moe](T)[sp].[moe](T)[sp].[moe]([m5C])[sp].[moe](A)p.[moe](T)[sp].[moe](A)[sp].[moe](A)[sp].[moe](T)p.[moe](G)[sp].[moe]([m5C])[sp].[moe](T)p.[moe](G)[sp].[moe](G)}$$$$ (last 3' nucleoside missing)” and “RNA1{[moe](A)[sp].[moe]([m5C])[sp].[moe](T)p.[moe](T)[sp].[moe](T)[sp].[moe]([m5C])p.[moe](A)[sp].[moe](T)[sp].[moe](A)p.[moe](A)[sp].[moe](T)[sp].[moe](G)p.[moe]([m5C])[sp].[moe](T)p.[moe](G)[sp].[moe](G)}$$$$ (last 3' nucleoside missing)” are the same in 3 h FOB score: 0 score 0-7 for the first, 0 score 0-7 for the second.

“RNA1{[moe](A)[sp].[moe]([m5C])[sp].[moe](T)p.[moe](T)[sp].[moe](T)p.[moe]([m5C])[sp].[moe](A)p.[moe](T)[sp].[moe](A)p.[moe](A)[sp].[moe](T)p.[moe](G)[sp].[moe]([m5C])p.[moe](T)[sp].[moe](G)[sp].[moe](G)}$$$$ (last 3' nucleoside missing)” and “RNA1{[moe](A)[sp].[moe]([m5C])[sp].[moe](T)p.[moe](T)p.[moe](T)p.[moe]([m5C])p.[moe](A)[sp].[moe](T)[sp].[moe](A)[sp].[moe](A)[sp].[moe](T)[sp].[moe](G)[sp].[moe]([m5C])[sp].[moe](T)[sp].[moe](G)[sp].[moe](G)}$$$$ (last 3' nucleoside missing)” are the same in 3 h FOB score: 0 score 0-7 for the first, 0 score 0-7 for the second.

“RNA1{[moe](A)[sp].[moe]([m5C])p.[moe](T)p.[moe](T)[sp].[moe](T)[sp].[moe]([m5C])[sp].[moe](A)[sp].[moe](T)[sp].[moe](A)[sp].[moe](A)[sp].[moe](T)[sp].[moe](G)[sp].[moe]([m5C])p.[moe](T)p.[moe](G)[sp].[moe](G)}$$$$ (last 3' nucleoside missing)” and “RNA1{[moe](A)[sp].[moe]([m5C])p.[moe](T)p.[moe](T)p.[moe](T)[sp].[moe]([m5C])[sp].[moe](A)[sp].[moe](T)[sp].[moe](A)[sp].[moe](A)[sp].[moe](T)[sp].[moe](G)[sp].[moe]([m5C])p.[moe](T)p.[moe](G)[sp].[moe](G)}$$$$ (last 3' nucleoside missing)” are the same in 3 h FOB score: 0 score 0-7 for the first, 0 score 0-7 for the second.

“RNA1{[moe](A)[sp].[moe]([m5C])p.[moe](T)p.[moe](T)p.[moe](T)[sp].[moe]([m5C])[sp].[moe](A)[sp].[moe](T)[sp].[moe](A)[sp].[moe](A)[sp].[moe](T)[sp].[moe](G)p.[moe]([m5C])p.[moe](T)p.[moe](G)[sp].[moe](G)}$$$$ (last 3' nucleoside missing)” and “RNA1{[moe](A)[sp].[moe]([m5C])p.[moe](T)p.[moe](T)p.[moe](T)p.[moe]([m5C])[sp].[moe](A)[sp].[moe](T)[sp].[moe](A)[sp].[moe](A)[sp].[moe](T)[sp].[moe](G)p.[moe]([m5C])p.[moe](T)p.[moe](G)[sp].[moe](G)}$$$$ (last 3' nucleoside missing)” are the same in 3 h FOB score: 0 score 0-7 for the first, 0 score 0-7 for the second.

“RNA1{[moe](A)p.[moe](T)[sp].[moe]([m5C])[sp].[moe](A)[sp].[moe]([m5C])[sp].[moe](T)[sp].[moe](T)[sp].[moe](T)[sp].[moe]([m5C])[sp].[moe](A)[sp].[moe](T)[sp].[moe](A)[sp].[moe](A)[sp].[moe](T)[sp].[moe](G)[sp].[moe]([m5C])[sp].[moe](T)[sp].[moe](G)}$$$$ (last 3' nucleoside missing)” and “RNA1{[moe](G)[sp].[moe](A)[sp].[moe](T)[sp].[moe](T)[sp].[moe]([m5C])[sp].[moe](A)[sp].[moe]([m5C])[sp].[moe](T)[sp].[moe](T)[sp].[moe](T)[sp].[moe]([m5C])[sp].[moe](A)[sp].[moe](T)[sp].[moe](A)[sp].[moe](A)[sp].[moe](T)[sp].[moe](G)[sp].[moe]([m5C])[sp].[moe](T)}$$$$ (last 3' nucleoside missing)” are the same in 3 h FOB score: 4 score 0-7 for the first, 4 score 0-7 for the second.

Compared with “RNA1{[moe](G)[sp].[moe](A)[sp].[moe](T)[sp].[moe](T)[sp].[moe]([m5C])[sp].[moe](A)[sp].[moe]([m5C])[sp].[moe](T)[sp].[moe](T)[sp].[moe](T)[sp].[moe]([m5C])[sp].[moe](A)[sp].[moe](T)[sp].[moe](A)[sp].[moe](A)[sp].[moe](T)[sp].[moe](G)[sp].[moe]([m5C])}$$$$ (last 3' nucleoside missing)”, “RNA1{[moe](T)[sp].[moe](T)[sp].[moe]([m5C])[sp].[moe](A)[sp].[moe]([m5C])[sp].[moe](T)[sp].[moe](T)[sp].[moe](T)[sp].[moe]([m5C])[sp].[moe](A)[sp].[moe](T)[sp].[moe](A)[sp].[moe](A)[sp].[moe](T)[sp].[moe](G)[sp].[moe]([m5C])[sp].[moe](T)[sp].[moe](G)}$$$$ (last 3' nucleoside missing)” is higher in 3 h FOB score: 2 score 0-7 for the first, 3.75 score 0-7 for the second.

Going from “RNA1{[moe](T)[sp].[moe](T)[sp].[moe]([m5C])[sp].[moe](A)[sp].[moe]([m5C])[sp].[moe](T)[sp].[moe](T)[sp].[moe](T)[sp].[moe]([m5C])[sp].[moe](A)[sp].[moe](T)[sp].[moe](A)[sp].[moe](A)[sp].[moe](T)[sp].[moe](G)[sp].[moe]([m5C])p.[moe](T)[sp].[moe](G)}$$$$ (last 3' nucleoside missing)” to “RNA1{[moe](T)[sp].[moe](T)[sp].[moe]([m5C])[sp].[moe](A)[sp].[moe]([m5C])[sp].[moe](T)[sp].[moe](T)[sp].[moe](T)[sp].[moe]([m5C])[sp].[moe](A)[sp].[moe](T)[sp].[moe](A)[sp].[moe](A)[sp].[moe](T)p.[moe](G)[sp].[moe]([m5C])p.[moe](T)[sp].[moe](G)}$$$$ (last 3' nucleoside missing)”, the 3 h FOB score falls from 1.75 score 0-7 to 1 score 0-7.
